Patent US20250388620A1, “EFFICIENT METHOD FOR MAKING HIGHLY PURIFIED 5’- CAPPED OLIGONUCLEOTIDES” (TriLink BioTechnologies, LLC, priority 2022, published 2025)

Experiments:
HEK293 cells = experiment: mWasabi fluorescence assay (protein expression of capped mRNA) in HEK293 cells; format: cell-based; conditions: mWasabi encoding mRNA capped with the cap analog, 24 hours post transfection, 12.5 ng mRNA per well
Protocol: (§1) Wasabi and FLuc mRNAs capped with cap analog ARCA, cap analog A-1, cap analog A-2, cap analog 3′OMe, or cap analog A-Control (see Table 2) were prepared as described in International Patent Publication Nos. WO2017053297 and WO2023147352 which are incorporated herein by reference in their entirety.
(§2) The IVT template was used to prepare mWasabi encoding mRNA (970 nucleotides) with cap analogs A-control, 3′OMe, A-1 or A-2 by in-vitro transcription. The mRNAs were purified prior to use in assays described below. Protein expression was measured by Allele Biotechnology in cell-based assays.
(§3) mWasabi Fluorescence Assay:
(§4) The day before transfection: cells were seeded as follows: • HEK293 cells: 6.25×10^4/cm^2 • HeLa cells: 3.125×10^4/cm^2 • The cells were dissociated with TrypLE • HEK293 cells were seeded in 96 well plates coated with Poly-D-Lysine (50 μL at 100 μg/mL per well). • HeLa cells were seeded in 96 well plates (no coating required). • The cells were seeded in 100 μL of growth media (Growth Media: DMEM+10% FBS supplemented with GlutaMAX and MEM Non-Essential Amino Acids).
(§5) The day of transfection: Opti-MEM and MessengerMax Transfection Reagent were allowed to reach room temperature. Two tubes were set up for each mRNA (i.e., for each cap analog). […]
(§6) mWasabi fluorescent expression was quantified using Cytation 10 after 24 hours.

HeLa cells = experiment: mWasabi fluorescence assay (protein expression of capped mRNA) in HeLa cells; format: cell-based; conditions: mWasabi encoding mRNA capped with the cap analog, 24 hours post transfection, 12.5 ng mRNA per well
Protocol: as §1, §2, §3, §4, §5, §6

Substance | fluorescence intensity (i.e., protein expression levels) (HEK293 cells) | fluorescence intensity (i.e., protein expression levels) (HeLa cells)
^m7, N2-butylG3′OMeppp^m6A2′OMepG [Compound A-2] | comparable to that of mRNA capped with Cap 3′OMe or mRNA capped with A-control, and much higher than that of mRNA capped with ARCA cap | comparable to that of mRNA capped with Cap 3′OMe or mRNA capped with A-control, and much higher than that of mRNA capped with ARCA cap
^N7-(4-chlorobenzyl)G3′OMeppp^m6A2′OMepG [Compound A-1] | comparable to that of mRNA capped with Cap 3′OMe or mRNA capped with A-control, and much higher than that of mRNA capped with ARCA cap | comparable to that of mRNA capped with Cap 3′OMe or mRNA capped with A-control, and much higher than that of mRNA capped with ARCA cap
